{
  "source": "ChEMBL document CHEMBL5344425",
  "about": "“Discovery of 5-(Pyrimidin-2-ylamino)-1H-indole-2-carboxamide Derivatives as Nur77 Modulators with Selective and Potent Activity Against Triple-Negative Breast Cancer” (J Med Chem, 2023)",
  "key": {"[1]": {"assay": "Toxicity in Zebra fish AB embryo assessed as mortality rate at 1.25 to 5 uM measured after 24 to 72 hrs", "design": "species or system Danio rerio", "settings": "zebrafish, dose lower 1.25 µM, time lower 24 hrs, dose upper 5 µM, time upper 72 hrs"}, "MDA-MB-231 [2]": {"system": "MDA-MB-231", "assay": "Induction of apoptosis in human MDA-MB-231 cells transfected with ctr siRNA assessed as late apoptotic cells at 2 uM measured after 6 hrs by AnnexinV-FITC/PI staining based flow cytometry (reference value: 3.97%)", "format": "functional"}, "[3]": {"assay": "Toxicity in BALB/c mouse xenografted with human MDA-MB-231 cells assessed as morphological changes in spleen at 10 mg/kg, ip qd for 16 days by Hematoxylin-Eosin staining based analysis", "format": "organism-based", "settings": "in vivo, 384 h, time 16 day"}, "MDA-MB-231 [4]": {"system": "MDA-MB-231", "assay": "Induction of apoptosis in human MDA-MB-231 cells transfected with Nur77 siRNA assessed as late apoptotic cells at 2 uM measured after 6 hrs by AnnexinV-FITC/PI staining based flow cytometry (reference value: 3.97%)", "format": "functional"}, "MDA-MB-231 [5]": {"system": "MDA-MB-231", "assay": "Antitumor activity against human MDA-MB-231 cells xenografted in BALB/c mouse assessed as increase in cleaved caspase-3 expression in tumor at 10 mg/kg, ip qd for 16 days by immunohistochemical staining based analysis", "format": "functional, organism-based", "settings": "time 16.0 day"}, "MDA-MB-231 [6]": {"system": "MDA-MB-231", "assay": "Induction of apoptosis in human MDA-MB-231 cells transfected with Myc-cmv assessed as PARP cleavage at 2 to 5 uM measured after 6 hrs by western blot analysis", "format": "functional, cell-based", "settings": "dose 2-5 µM"}, "[7]": {"assay": "Toxicity in BALB/c mouse xenografted with human MDA-MB-231 cells assessed as morphological changes in liver at 10 mg/kg, ip qd for 16 days by Hematoxylin-Eosin staining based analysis", "format": "organism-based", "settings": "in vivo, 384 h, time 16 day"}, "MDA-MB-231 [8]": {"system": "MDA-MB-231", "assay": "Induction of apoptosis in human MDA-MB-231 cells assessed as PARP cleavage at 2.5 uM pretreated with caspase inhibitor, Z-VAD-FMK for 4 hrs followed by compound addition and measured after 6 hrs by western blot analysis", "format": "functional, cell-based"}, "MDA-MB-231 [9]": {"system": "MDA-MB-231", "assay": "Induction of apoptosis in human MDA-MB-231 cells assessed as PARP cleavage measured after 6 hrs by western blot analysis", "format": "functional, cell-based", "settings": "dose 0.5-5 µM"}, "MDA-MB-231 [10]": {"system": "MDA-MB-231", "assay": "Induction of apoptosis in human MDA-MB-231 cells assessed as proportion of late apoptotic cells at 0.32 uM measured after 5 hrs by AnnexinV-FITC/PI staining based flow cytometry (reference value: 2.55%)", "format": "functional"}, "MDA-MB-231 [11]": {"system": "MDA-MB-231", "assay": "Induction of apoptosis in human MDA-MB-231 cells transfected with Myc-Nur77 R184A mutant assessed as PARP cleavage at 2 to 5 uM measured after 6 hrs by western blot analysis", "format": "functional, cell-based", "settings": "dose 2-5 µM"}, "MDA-MB-231 [12]": {"system": "MDA-MB-231", "assay": "Induction of apoptosis in human MDA-MB-231 cells assessed as proportion of early apoptotic cells at 1.25 uM measured after 5 hrs by AnnexinV-FITC/PI staining based flow cytometry (reference value: 3.35%)", "format": "functional"}, "[13]": {"molecular_target": "Nuclear receptor subfamily 4immunitygroup A member 1 (Homo sapiens, UniProt P22736)", "sequence (P22736 whole entry)": "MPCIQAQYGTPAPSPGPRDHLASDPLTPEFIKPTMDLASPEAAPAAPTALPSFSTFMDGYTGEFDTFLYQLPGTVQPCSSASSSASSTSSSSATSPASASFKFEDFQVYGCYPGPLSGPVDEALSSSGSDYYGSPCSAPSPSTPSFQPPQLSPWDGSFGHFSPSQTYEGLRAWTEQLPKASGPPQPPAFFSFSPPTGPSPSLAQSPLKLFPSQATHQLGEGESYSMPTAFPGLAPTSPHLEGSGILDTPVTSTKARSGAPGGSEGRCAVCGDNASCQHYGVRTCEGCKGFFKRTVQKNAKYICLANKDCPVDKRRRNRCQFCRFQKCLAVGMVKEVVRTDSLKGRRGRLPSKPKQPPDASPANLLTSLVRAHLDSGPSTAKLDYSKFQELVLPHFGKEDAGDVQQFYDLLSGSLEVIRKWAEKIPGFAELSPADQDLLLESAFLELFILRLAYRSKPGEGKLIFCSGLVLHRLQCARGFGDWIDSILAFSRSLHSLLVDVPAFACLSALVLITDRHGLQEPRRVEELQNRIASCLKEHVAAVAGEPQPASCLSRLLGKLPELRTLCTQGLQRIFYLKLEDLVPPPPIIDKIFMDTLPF", "assay": "Modulation of Nur77 in human MDA-MB-231 cells assessed as increase in TP53 phosphorylation at Ser37 residue at 0.31 to 5 uM measured after 6 hrs by western blot analysis", "format": "cell-based", "settings": "filed as modulator, dose 0.31-5 µM"}, "[14]": {"assay": "Toxicity in BALB/c mouse xenografted with human MDA-MB-231 cells assessed as morphological changes in lung at 10 mg/kg, ip qd for 16 days by Hematoxylin-Eosin staining based analysis", "format": "organism-based", "settings": "in vivo, 384 h, time 16 day"}, "HeLa": {"system": "HeLa", "assay": "Antiproliferative activity against human HeLa cells assessed as inhibition of cell growth measured after 24 hrs by MTT assay", "format": "functional, cell-based"}, "[15]": {"assay": "Selectivity index, ratio of IC50 for cytotoxicity against human MCF-10A cells to IC50 for antiproliferative activity against human MCF7 cells", "format": "toxicity, cell-based", "settings": "MCF-10A cells versus MCF7 cells, read-out: Ratio IC50"}, "SW-620": {"system": "SW-620", "assay": "Antiproliferative activity against human SW620 cells assessed as inhibition of cell growth measured after 24 hrs by MTT assay", "format": "functional, cell-based", "settings": "SW-620, 24 h"}, "T47D": {"system": "T47D", "assay": "Antiproliferative activity against human T47D cells transfected with Nur77 siRNA assessed as inhibition of cell growth measured after 24 hrs by MTT assay", "format": "functional, cell-based"}, "MDA-MB-231 [16]": {"system": "MDA-MB-231", "assay": "Induction of apoptosis in human MDA-MB-231 cells transfected with ctr siRNA assessed as loss of mitochondrial membrane potential at 1 uM measured after 6 hrs by JC-1 staining based flow cytometry (reference value: 13.93%)", "format": "functional"}, "MDA-MB-231 [17]": {"system": "MDA-MB-231", "assay": "Induction of apoptosis in human MDA-MB-231 cells transfected with Myc-Nur77 assessed as PARP cleavage at 1 to 2 uM measured after 6 hrs by western blot analysis", "format": "functional, cell-based", "settings": "dose 1-2 µM"}, "MDA-MB-231 [18]": {"system": "MDA-MB-231", "assay": "Induction of apoptosis in human MDA-MB-231 cells transfected with ctr siRNA assessed as late apoptotic cells at 1 uM measured after 6 hrs by AnnexinV-FITC/PI staining based flow cytometry (reference value: 3.97%)", "format": "functional"}, "MDA-MB-231 [19]": {"system": "MDA-MB-231", "assay": "Antiproliferative activity against human MDA-MB-231 cells assessed as inhibition of cell growth measured after 24 hrs by MTT assay", "format": "functional, cell-based", "settings": "MDA-MB-231, 24 h"}, "[20]": {"molecular_target": "T1, Retinoic acid receptor RXR-alpha (Homo sapiens) (UniProt P19793)", "T1 sequence (whole entry)": "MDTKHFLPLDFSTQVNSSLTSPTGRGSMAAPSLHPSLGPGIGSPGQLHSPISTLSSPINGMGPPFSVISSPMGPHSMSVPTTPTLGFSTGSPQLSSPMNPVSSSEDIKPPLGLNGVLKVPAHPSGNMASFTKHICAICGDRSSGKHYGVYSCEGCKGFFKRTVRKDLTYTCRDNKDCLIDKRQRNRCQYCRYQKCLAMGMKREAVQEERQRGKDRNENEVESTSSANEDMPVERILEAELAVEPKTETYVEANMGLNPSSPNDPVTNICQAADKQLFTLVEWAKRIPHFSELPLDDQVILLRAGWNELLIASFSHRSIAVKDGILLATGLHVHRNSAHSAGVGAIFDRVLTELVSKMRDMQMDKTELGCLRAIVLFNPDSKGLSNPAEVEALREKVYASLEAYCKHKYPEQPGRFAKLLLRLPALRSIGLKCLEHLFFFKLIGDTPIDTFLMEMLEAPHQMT", "assay": "Antagonist activity at RXRalpha (unknown origin) transfected in HEK293T cells cotransfected with pG5-Luc assessed as inhibition of receptor transcriptional activity at 2 uM measured after 12 hrs by luciferase reporter gene assay", "format": "cell-based"}, "HCT-116": {"system": "HCT-116", "assay": "Antiproliferative activity against human HCT-116 cells assessed as inhibition of cell growth measured after 24 hrs by MTT assay", "format": "functional, cell-based", "settings": "HCT-116, 24 h"}, "[21]": {"assay": "Toxicity in BALB/c mouse xenografted with human MDA-MB-231 cells assessed as morphological changes in heart at 10 mg/kg, ip qd for 16 days by Hematoxylin-Eosin staining based analysis", "format": "organism-based", "settings": "in vivo, 384 h, time 16 day"}, "[22]": {"system": "Nuclear receptor subfamily 4immunitygroup A member 1 (Homo sapiens), P22736 [UNDEFINED MUTATION]", "sequence (P22736 whole entry, looked up, stated change not applied)": "as the sequence (P22736 whole entry) above", "assay": "Induction of degradation of Myc-tagged Nur77 R184A mutant (unknown origin) transfected in human MDA-MB-231 cells at 2 to 5 uM measured after 6 hrs by western blot analysis", "format": "cell-based", "settings": "dose 2-5 µM"}},
  "note": "The source made the active and inactive calls. No cut-off for these calls is given here.",
  "data": [
    {"smiles": "CCN(CC)CCCNC(=O)c1cc2cc(Nc3nccc(-c4sc(NC)nc4C)n3)ccc2[nH]1", "values": [
      {"measurement": "Activity", "setting": "[1]", "result": "Non-Toxic"},
      {"measurement": "Activity", "setting": "MDA-MB-231 [2]", "result": 13.04, "unit": "%"},
      {"measurement": "Activity", "setting": "[3]", "result": "Non-Toxic"},
      {"measurement": "Activity", "setting": "MDA-MB-231 [4]", "result": 2.36, "unit": "%"},
      {"measurement": "Activity", "setting": "MDA-MB-231 [5]", "result": "Active"},
      {"measurement": "Activity", "setting": "MDA-MB-231 [6]", "result": "Active"},
      {"measurement": "Activity", "setting": "[7]", "result": "Non-Toxic"},
      {"measurement": "Activity", "setting": "MDA-MB-231 [8]", "result": "inactive"},
      {"measurement": "Activity", "setting": "MDA-MB-231 [9]", "result": "Dose-Dependent Effect"},
      {"measurement": "Activity", "setting": "MDA-MB-231 [10]", "result": 5.29, "unit": "%"},
      {"measurement": "Activity", "setting": "MDA-MB-231 [11]", "result": "inactive"},
      {"measurement": "Activity", "setting": "MDA-MB-231 [12]", "result": 35.95, "unit": "%"},
      {"measurement": "Activity", "setting": "[13]", "result": "Active"},
      {"measurement": "Activity", "setting": "[14]", "result": "Non-Toxic"},
      {"measurement": "IC50", "setting": "HeLa", "result": 1.99, "unit": "µM"},
      {"measurement": "selectivity ratio", "setting": "[15]", "result": 66.7},
      {"measurement": "IC50", "setting": "SW-620", "result": 18.1, "unit": "µM"},
      {"measurement": "IC50", "setting": "T47D", "result": 6.34, "unit": "µM"},
      {"measurement": "Activity", "setting": "MDA-MB-231 [16]", "result": 35.26, "unit": "%"},
      {"measurement": "Activity", "setting": "MDA-MB-231 [17]", "result": "Active"},
      {"measurement": "Activity", "setting": "MDA-MB-231 [18]", "result": 8.23, "unit": "%"},
      {"measurement": "IC50", "setting": "MDA-MB-231 [19]", "result": 0.4, "unit": "µM"},
      {"measurement": "inhibition", "setting": "[20]", "result": "inactive"},
      {"measurement": "IC50", "setting": "HCT-116", "result": 9.84, "unit": "µM"},
      {"measurement": "Activity", "setting": "[21]", "result": "Non-Toxic"},
      {"measurement": "Activity", "setting": "[22]", "result": "inactive"}
    ]}
  ]
}
